Consider seven molecules from patent EP3057949B1, “SECONDARY ALCOHOL QUINOLINYL MODULATORS OF ROR GAMMA T” (Janssen Pharmaceutica NV, priority 2013, dated 2015).

The structures appear in SMILES notation.

For test [1], the system named is IL-17 production by CD4 T cells. The experiment in a line: Human Th17 Assay (IL-17 production by CD4 T cells). It counts as cell-based. The settings on record: IL-17 in supernatant after 3 days, Th17 differentiation conditions. The text has this:
The human Thl7 assay tests the effect of RORyt modulatory compounds on IL-17 production by CD4 T cells under conditions which favor Th17 differentiation.
Total CD4^+ T cells were isolated from the peripheral blood mononuclear cells (PBMC) of healthy donors using a CD4^+ T cell isolation kit II, following the manufacturer's instructions (Miltenyi Biotec). Cells were resuspended in a medium of RPMI-1640 supplemented with 10% fetal bovine serum, penicillin, streptomycin, […], and β-mercaptoethanol and were added to 96-well plates at 1.5x10^5 per 100 µL per well. 50 µL of compound at titrated concentrations in DMSO were added into each well at final DMSO concentration at 0.2%. Cells were incubated for 1 hour, then 50 µL of Th17 cell differentiation medium was added to each well. The final concentrations of antibodies and cytokines (R&D Systems) in differentiation medium were: 3x10^6/mL anti-CD3/CD28 beads (prepared using human T cell activation/expansion kit, Miltenyi Biotec), 10 µg/mL anti-IL4, 10 µg/mL anti-IFNγ, 10 ng/mL IL1β, 10 ng/mL IL23, 50 ng/mL IL6, 3 ng/mL TGFβ and 20 U/mL IL2. Cells were cultured at 37 °C and 5% CO2 for 3 days. Supernatants were collected and the accumulated IL-17 in culture was measured by using MULTI-SPOT® Cytokine Plate following manufacture's instruction (Meso Scale Discovery). The plate was read using Sector Imager 6000, and IL-17 concentration was extrapolated from the standard curve. The IC50s were determined by GraphPad.

Test [2] concerns the target T1, human RORγt ligand binding domain (RORγt LBD) (Homo sapiens, UniProt P51449).
T1 construct: His-tag (N); TurboTEV protease cleavage site (ENLYFQG) (N); made in house; host or cells: E. coli (pHIS1, modified pET vector)
T1 sequence (P51449 258-518): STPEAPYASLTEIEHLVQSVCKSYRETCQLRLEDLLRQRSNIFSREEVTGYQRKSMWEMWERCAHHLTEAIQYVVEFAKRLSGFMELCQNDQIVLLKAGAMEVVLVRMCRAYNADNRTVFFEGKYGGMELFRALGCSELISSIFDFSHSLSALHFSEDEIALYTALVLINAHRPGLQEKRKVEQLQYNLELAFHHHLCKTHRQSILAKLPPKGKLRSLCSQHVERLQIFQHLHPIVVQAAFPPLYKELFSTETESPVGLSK
In words: ThermoFluor® Assay (RORγt thermal shift binding). Conditions: 0.065 mg/mL RORγt, 60 µM 1,8-ANS, pH 7.0; estimated from concentration response curves. As for the experimental part:
This approach is applicable to a wide variety of systems, and rigorous in theoretical interpretation through quantitation of equilibrium binding constants (KD).
The shift in the melting point described as a ΔTm is proportional to the concentration and affinity of the ligand. The compound potency may be compared as a rank order of either ATm values at a single compound concentration or in terms of KD values, estimated from concentration response curves.
ThermoFluor® experiments were carried out using instruments owned by Janssen Research and Discovery, L.L.C. through its acquisition of 3-Dimensional Pharmaceuticals, Inc. 1,8-ANS (Invitrogen) was used as a fluorescent dye. Protein and compound solutions are dispensed into black 384-well polypropylene PCR microplates (Abgene) and overlayed with silicone oil (1 µL, Fluka, type DC 200) to prevent evaporation.
Bar-coded assay plates are robotically loaded onto a thermostatically controlled PCR-type thermal block and then heated at a typical ramp-rate of 1 °C/minute for all experiments. Fluorescence was measured by continuous illumination with UV light (Hamamatsu LC6) supplied via fiber optic and filtered through a band-pass filter (380-400 nm; >6 OD cutoff). Fluorescence emission of the entire 384-well plate was detected by measuring light intensity using a CCD camera (Sensys, Roper Scientific) filtered to detect 500 ± 25 nm, resulting in simultaneous and independent readings of all 384 wells. Images were collected at each temperature, and the sum of the pixel intensity in a given area of the assay plate was recorded versus temperature. Reference wells contained RORyt without compounds, and the assay conditions were as follows: • 0.065 mg/mL RORγt • 60 µM 1,8-ANS • 100 mM Hepes, pH 7.0 • 10 mM NaCl • 2.5 mM GSH • 0.002% Tween-20
Project compounds were arranged in a pre-dosed mother plate (Greiner Bio-one) wherein compounds are serially diluted in 100% DMSO by 1:2 from a high concentration of 10 mM over 12 columns within a series (column 12 is a reference well containing DMSO, no compound). The compounds were robotically dispensed directly into assay plates (1x = 46 nL) using a Hummingbird capillary liquid handling instrument (Digilab). Following compound dispense, protein and dye in buffer was added to achieve the final assay volume of 3 µL, followed by 1 µL of silicone oil.

A further test addresses T2, full-length human RORγt (Homo sapiens, UniProt P51449).
T2 construct: expressed in transfected cells; host or cells: HEK293T
T2 sequence (P51449 1-497 isoform P51449-2): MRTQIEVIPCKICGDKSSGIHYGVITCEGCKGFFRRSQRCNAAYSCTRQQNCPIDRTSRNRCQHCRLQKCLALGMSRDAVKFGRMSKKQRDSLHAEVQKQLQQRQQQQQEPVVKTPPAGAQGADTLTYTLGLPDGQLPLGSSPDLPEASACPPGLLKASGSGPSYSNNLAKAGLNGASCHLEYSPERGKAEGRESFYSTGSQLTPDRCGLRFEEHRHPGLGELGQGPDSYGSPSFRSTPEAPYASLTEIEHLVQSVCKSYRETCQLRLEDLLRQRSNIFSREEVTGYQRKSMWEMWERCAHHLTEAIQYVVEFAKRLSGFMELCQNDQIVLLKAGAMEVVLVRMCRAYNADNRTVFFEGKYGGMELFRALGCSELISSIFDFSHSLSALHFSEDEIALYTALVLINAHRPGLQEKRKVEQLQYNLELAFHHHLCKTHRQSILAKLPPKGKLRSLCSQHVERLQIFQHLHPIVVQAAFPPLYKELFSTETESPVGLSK
In words: RORγt (full-length human) Reporter Assay (GAL4 luciferase, HEK293T cells). The settings on record: for inhibition at 2 µM / inhibition at 0.67 µM: HEK-293T; for inhibition at 2 µM: read-out: RORγt (FL) Reporter Assay, % inhibition @ 2 µM; for IC50: overnight (16 to 20 hours) incubation, read-out: RORγt (FL) Reporter Assay, IC50; for inhibition at 0.67 µM: 0.67 µM compound concentration (footnote *), read-out: RORγt (FL) Reporter Assay, % inhibition (values marked *). Type of test: cell-based. As to the method:
Compounds were assessed for RORgt functional modulation using either the RORgt ligand binding domain (LBD) reporter assay, or the RORgt full-length (FL) reporter assay.
A reporter assay was used to test functional activity of RORγt modulatory compounds on transcriptional activation driven by full-length human RORγt. Cells used in this assay were transiently co-transfected with three different plasmids, one expressing the GAL4-DNA binding domain (DBD)-RORγt fusion protein under control of a CMV promoter (NH2-Gal4-DBD:RORC-COOH in pCMV-BD, Stratagene #211342), and two reporter plasmids - the firefly luciferase reporter under control of a GAL4 promoter (pFR-Luc 2x GAL4) and Renilla luciferase reporter under control of CMV promoter (pRL-CMV, Promega #E2261). The full-length coding sequence was used for human RORγt, i.e., nucleotides 142-1635 of human RORγt, transcript variant 2, NCBI Accession: NM_001001523.1 (SEQ ID NO:1). HEK293T cells were plated at 35000 per well in 96-well plate in medium of MEM with 8.6% FBS. After 18-22 hours incubation, the transfection was carried out by using a PEI solution with 170.5 ng total DNA/well (50 ng pCMV-BD-ROR plus 20 ng of pFR-Luc reporter and 0.5 ng of pRL-CMV reporter plus 100 ng Carrier DNA (Clontech # 630440) for each well). 4-6 hours after transfection, cells were treated with compounds for overnight in the medium with final concentration of FBS 1.1% and DMSO 0.1%. After overnight (16 to 20 hours) incubation, media were removed and cells were lysed with 20 µL 1x Passive Lysis Buffer (Promega) for 10-15 minutes. Luminescence was measured using a BMG LUMIstar OPTIMA plate reader, after addition of 75 µL/well firefly luciferase buffer, followed by 75 µL/well Renilla luciferase buffer. To calculate the effect of compounds on RORγt activity, firefly values were normalized against values of DMSO only and values of reference compound at saturating concentration, then further normalized against Renilla signals. IC50s were generated by plotting final Renilla normalized data against compound concentration and percent inhibition was calculated against DMSO control.
For orientation: Reporter assays use an easily measured gene product as a stand-in for the process of interest.

The IC50 is the concentration at which inhibition is half-maximal. For `COc1nc2ccc(C(O)c3cnnn3C)cc2c(Cl)c1Cc1ccc(-n2cccn2)cc1` (single isomer, unassigned) [Example 5b, (3-(4-(1H-Pyrazol-1-yl)benzyl)-4-chloro-2-methoxyquinolin-6-yl)(1-methyl-1H-1,2,3-triazol-5-yl)methanol], in test [1], inhibition was half-maximal at 1500 nM (IC50).
With `COc1nc2ccc(C(O)c3cnnn3C)cc2c(Cl)c1Cc1ccc(-n2cccn2)cc1` (single isomer, unassigned) [Example 5c, (3-(4-(1H-Pyrazol-1-yl)benzyl)-4-chloro-2-methoxyquinolin-6-yl)(1-methyl-1H-1,2,3-triazol-5-yl)methanol], it took 610 nM to reach half-maximal inhibition in test [1] (IC50).
In general, Kd refers to the free concentration of one partner at which half of the binding sites on the other are occupied at equilibrium, for simple one-to-one binding. As a reminder, the inhibition is the change of the read-out against control, counted positive when it falls. Consider `COc1nc2ccc(C(O)c3c(C)noc3C)cc2c(Cl)c1Cc1ccc(C(F)(F)F)cc1` (single isomer, unassigned) [Example 20b, (4-Chloro-2-methoxy-3-(4-(trifluoromethyl)benzyl)quinolin-6-yl)(3,5-dimethylisoxazol-4-yl)methanol], for which the Kd in test [2] is 290 nM. Further, the inhibition at 2 µM on full-length human RORγt (2 µM compound) came to 84%. Besides, the IC50 on full-length human RORγt is 300 nM.
For `COc1nc2ccc(C(O)c3c(C)noc3C)cc2c(Cl)c1Cc1ccc(C(F)(F)F)cc1` (single isomer, unassigned) [Example 20c, (4-Chloro-2-methoxy-3-(4-(trifluoromethyl)benzyl)quinolin-6-yl)(3,5-dimethylisoxazol-4-yl)methanol], the Kd in test [2] is 22 nM. Further, the “RORγt (FL) Reporter Assay, % inhibition @ 2 µM” value on full-length human RORγt (2 µM compound, 2 µM) was determined as 99%. Moreover, on full-length human RORγt, the IC50 stood at 23 nM.
Regarding `COc1nc2ccc(C(O)c3ccc(C#N)cc3)cc2c(Cl)c1Cc1ccc(C#N)cc1` (centres unmarked) [Example 9, 4-((4-Chloro-3-(4-cyanobenzyl)-2-methoxyquinolin-6-yl)(hydroxy)methyl)benzonitrile], the equilibrium dissociation constant (Kd) in test [2] is 680 nM. Besides, on full-length human RORγt, the inhibition at 0.67 µM stood at 42% and the 50% inhibitory concentration (IC50) is 150 nM.
As for `COc1nc2ccc(C(O)c3c(C)noc3C)cc2c(Cl)c1Cc1ccc(C(F)(F)F)cc1` (centres unmarked) [Example 20a, (4-Chloro-2-methoxy-3-(4-(trifluoromethyl)benzyl)quinolin-6-yl)(3,5-dimethylisoxazol-4-yl)methanol], in test [2], the Kd is 86 nM. Besides, at full-length human RORγt (2 µM compound), the inhibition at 2 µM was 97%. Also, at full-length human RORγt, the IC50 was 52 nM.
Consider `COc1nc2ccc(C(O)c3c(C)nn(C)c3C)cc2c(Cl)c1Cc1ccc(C(F)(F)F)cc1` (centres unmarked) [Example 34a, (4-Chloro-2-methoxy-3-(4-(trifluoromethyl)benzyl)quinolin-6-yl)(1,3,5-trimethyl-1H-pyrazol-4-yl)methanol], for which, in test [2], the Kd was 11 nM. Besides, at full-length human RORγt, the inhibition at 0.67 µM came out at 95% and the IC50 turned out to be 20 nM.
